How the values were obtained:
KB tumor-bearing mice = assay: Ex vivo biodistribution in human KB tumor-bearing nude mice; conditions: for Ratio of tumor to Blood / Ratio of tumor to Kidney / Ratio of tumor to Liver / %ID/g Blood / %ID/g Bone / %ID/g Feces / %ID/g Gall bladder / %ID/g Heart / %ID/g Intestines (empty) / %ID/g Tumor / %ID/g Kidneys / %ID/g Liver / %ID/g Lung / %ID/g Muscle / %ID/g Salivary glands / %ID/g Spleen / %ID/g Stomach (empty): n = 3; for %ID/g Tumor: KB tumor
Method: All animal experiments were approved by the local veterinary department and complied with Swiss and local laws on animal protection. Female CD-1 nude mice (Charles River, Sulzfeld, Germany) were fed with a folate-deficient rodent diet (Harlan Laboratories, Indianapolis, IN, USA). After an acclimatization period of 5 to 7 days, human KB tumor cells (5 × 10^6 cells in 0.1 mL sterile phosphate-buffered saline (PBS)) were inoculated subcutaneously on both shoulders of each mouse. Twelve days later, the animals were intravenously injected with [^18 F]12 (approximately 5 MBq, 100 μL). […] Animals were euthanized at the indicated time points, and selected organs and tissues were collected, weighed, and measured in a γ-counter. The incorporated radioactivity was expressed as percentage injected dose per gram (%ID/g) of tissue. PET/computed tomography (CT) experiments were performed with a dedicated small-animal PET/CT scanner (eXplore Vista PET/CT, Sedecal, Algete, Spain/GE Healthcare). Animals were intravenously injected with [^18 F]12 (approximately 13 MBq, 100 μL). For scanning, mice were anesthetized with isoflurane in an air/oxygen mixture. The PET scans were acquired from 60 to 90 min post-injection (p.i.) followed by a CT. After acquisition, PET data were reconstructed in user-defined time frames, and the fused datasets of PET and CT were analyzed with PMOD software (version 3.4).
Biodistribution studies of the new ^18 F-folate [^18 F]12 were performed using human KB tumor-bearing nude mice, determined at 30, 60, and 90 min post-injection. […] Selective blocking of the folate receptors led to a decrease in specific radiotracer accumulation of 94% in KB tumors and 99% in kidneys (Figure 2). The strong blocking effect reflected the high specificity of the tracer to the FR in vivo. Unspecific liver uptake decreased from 5.2%ID/g to 2.1%ID/g over 90 min similar to the background radioactivity in the feces and gall bladder (Table 2), which is believed to be a beneficial effect of the increased polarity of this novel radiofolate. Compared to the biodistribution profile at 45 min post-injection of the former ^18 F-click folate by Ross and co-workers, the specific uptake of the original ^18 F-click folate in KB tumors was retained, whereas the specific kidney uptake more than doubled. This indicated a stronger tendency to renal excretion, more likely a result of the increased polarity of the new ^18 F-folate [^18 F]12. Additionally, the highest unspecific background accumulation in the gall bladder was reduced by half. This background reduction correlated with the more renal excretion and the two times lower k’ value as an indicator of lipophilicity of the here presented radiofolate. […] On the other hand, the still increased uptake levels in the gall bladder and feces were evidence of a prominent hepatobiliary elimination pathway of [^18 F]12. However, distinct changes in the molecular structure of the folate-based radioconjugate [^18 F]12 induced a higher polarity into the lead molecule ^18 F-click folate and a significant reduction of the in vivo background.
Figure 2 Results of ex vivo biodistribution studies under control and blockade conditions using [^18 F]12 in mice. The human KB tumor-bearing nude mice were euthanized 60 min post-injection. Data are expressed as percentage injected dose per gram tissue (%ID/g).

[1] = Relative lipophilicity (capacity factor k’) by reversed-phase HPLC; format: physicochemical; conditions: methanol-phosphoric acid buffer eluent, pH 2
Method: The relative lipophilicity of 6 was determined as capacity factor k’ (k’ = (tretention - tsolvent) / tsolvent) by reversed-phase HPLC using a methanol-phosphoric acid buffer eluent system at pH 2. […] This method has already been described elsewhere. The capacity factor k’ (k’ = (tretention - tsolvent) / tsolvent) was determined using reversed-phase HPLC and enables different (radio)folates to be compared based on their polarity. The values determined can be used to give hint to the in vivo behavior in terms of the degree of hepatobiliary excretion by comparison with literature examples.

[2] = 60 min p.i., 100 μg native folic acid before tracer
[3] = 60 min p.i. blockade (100 μg folic acid 5 min before tracer)

16-(4-(((2-amino-4-oxo-3,4-dihydropteridin-6-yl)methyl)amino)benzamido)-1-(4-(2-(2-(2-[^18 F]fluoroethoxy)ethoxy)ethoxy)-1H-1,2,3-triazol-1-yl)-13-oxo-3,6,9-trioxa-12-azaheptadecan-17-oic acid [[^18 F]12]
Ratio of tumor to Blood (KB tumor-bearing mice; 30 min p.i.): 16.81 ± 3.13 | Ratio of tumor to Kidney (KB tumor-bearing mice; 30 min p.i.): 0.08 ± 0.02 | Ratio of tumor to Liver (KB tumor-bearing mice; 30 min p.i.): 0.69 ± 0.22 | decrease in specific radiotracer accumulation by FR blocking, KB tumors (KB tumor-bearing mice; [2]): 94% | decrease in specific radiotracer accumulation by FR blocking, kidneys (KB tumor-bearing mice; [2]): 99% | Ratio of tumor to Blood (KB tumor-bearing mice; 60 min p.i.): 18.95 ± 2.68 | Ratio of tumor to Kidney (KB tumor-bearing mice; 60 min p.i.): 0.08 ± 0.01 | Ratio of tumor to Liver (KB tumor-bearing mice; 60 min p.i.): 0.86 ± 0.19 | Ratio of tumor to Blood (KB tumor-bearing mice; 90 min p.i.): 22.72 ± 6.73 | Ratio of tumor to Kidney (KB tumor-bearing mice; 90 min p.i.): 0.09 ± 0.01 | Ratio of tumor to Liver (KB tumor-bearing mice; 90 min p.i.): 1.55 ± 0.15 | %ID/g Blood (KB tumor-bearing mice; 30 min p.i.): 0.20 ± 0.02 %ID/g | %ID/g Blood (KB tumor-bearing mice; [3]): 0.04 ± 0.01 %ID/g | %ID/g Blood (KB tumor-bearing mice; 60 min p.i.): 0.18 ± 0.01 %ID/g | %ID/g Blood (KB tumor-bearing mice; 90 min p.i.): 0.16 ± 0.02 %ID/g | %ID/g Bone (KB tumor-bearing mice; 30 min p.i.): 1.47 ± 0.05 %ID/g | %ID/g Bone (KB tumor-bearing mice; [3]): 0.06 ± 0.06 %ID/g | %ID/g Bone (KB tumor-bearing mice; 60 min p.i.): 1.13 ± 0.21 %ID/g | %ID/g Bone (KB tumor-bearing mice; 90 min p.i.): 0.84 ± 0.16 %ID/g | %ID/g Feces (KB tumor-bearing mice; 30 min p.i.): 164.2 ± 72.5 %ID/g | %ID/g Feces (KB tumor-bearing mice; [3]): 105.5 ± 128.7 %ID/g | %ID/g Feces (KB tumor-bearing mice; 60 min p.i.): 29.48 ± 19.04 %ID/g | %ID/g Feces (KB tumor-bearing mice; 90 min p.i.): 11.36 ± 4.29 %ID/g | %ID/g Gall bladder (KB tumor-bearing mice; 30 min p.i.): 309.3 ± 187.6 %ID/g | %ID/g Gall bladder (KB tumor-bearing mice; [3]): 775.5 ± 206.5 %ID/g | %ID/g Gall bladder (KB tumor-bearing mice; 60 min p.i.): 133.2 ± 67.38 %ID/g | %ID/g Gall bladder (KB tumor-bearing mice; 90 min p.i.): 55.13 %ID/g | %ID/g Heart (KB tumor-bearing mice; 30 min p.i.): 1.81 ± 0.61 %ID/g | %ID/g Heart (KB tumor-bearing mice; [3]): 0.02 ± 0.01 %ID/g | %ID/g Heart (KB tumor-bearing mice; 60 min p.i.): 1.09 ± 0.07 %ID/g | %ID/g Heart (KB tumor-bearing mice; 90 min p.i.): 0.79 ± 0.16 %ID/g | %ID/g Intestines (empty) (KB tumor-bearing mice; 30 min p.i.): 23.52 ± 7.37 %ID/g | %ID/g Intestines (empty) (KB tumor-bearing mice; [3]): 14.72 ± 19.32 %ID/g | %ID/g Intestines (empty) (KB tumor-bearing mice; 60 min p.i.): 4.56 ± 2.31 %ID/g | %ID/g Intestines (empty) (KB tumor-bearing mice; 90 min p.i.): 1.92 ± 0.52 %ID/g | %ID/g Tumor (KB tumor-bearing mice; 30 min p.i.): 3.4 %ID/g | %ID/g Tumor (KB tumor-bearing mice; 30 min p.i., listed as 12): 3.39 ± 0.54 %ID/g | %ID/g Tumor (KB tumor-bearing mice; [3]): 0.19 ± 0.07 %ID/g | %ID/g Tumor (KB tumor-bearing mice; 60 min p.i.): 3.39 ± 0.44 %ID/g | %ID/g Tumor (KB tumor-bearing mice; 90 min p.i.): 3.54 ± 0.68 %ID/g | %ID/g Kidneys (KB tumor-bearing mice; 30 min p.i.): 42 %ID/g | %ID/g Kidneys (KB tumor-bearing mice; 30 min p.i., listed as 12): 41.80 ± 2.58 %ID/g | %ID/g Kidneys (KB tumor-bearing mice; [3]): 0.26 ± 0.08 %ID/g | %ID/g Kidneys (KB tumor-bearing mice; 60 min p.i.): 40.77 ± 4.34 %ID/g | %ID/g Kidneys (KB tumor-bearing mice; 90 min p.i.): 41.04 ± 7.04 %ID/g | %ID/g Liver (KB tumor-bearing mice; 30 min p.i.): 5.2 %ID/g | %ID/g Liver (KB tumor-bearing mice; 30 min p.i., listed as 12): 5.24 ± 1.57 %ID/g | %ID/g Liver (KB tumor-bearing mice; [3]): 0.21 ± 0.09 %ID/g | %ID/g Liver (KB tumor-bearing mice; 60 min p.i.): 4.05 ± 0.67 %ID/g | %ID/g Liver (KB tumor-bearing mice; 90 min p.i.): 2.1 %ID/g | %ID/g Liver (KB tumor-bearing mice; 90 min p.i., listed as 12): 2.30 ± 0.54 %ID/g | %ID/g Lung (KB tumor-bearing mice; 30 min p.i.): 1.21 ± 0.15 %ID/g | %ID/g Lung (KB tumor-bearing mice; [3]): 0.04 ± 0.03 %ID/g | %ID/g Lung (KB tumor-bearing mice; 60 min p.i.): 1.02 ± 0.7 %ID/g | %ID/g Lung (KB tumor-bearing mice; 90 min p.i.): 0.86 ± 0.17 %ID/g | %ID/g Muscle (KB tumor-bearing mice; 30 min p.i.): 1.91 ± 0.25 %ID/g | %ID/g Muscle (KB tumor-bearing mice; [3]): 0.08 ± 0.09 %ID/g | %ID/g Muscle (KB tumor-bearing mice; 60 min p.i.): 1.64 ± 0.46 %ID/g | %ID/g Muscle (KB tumor-bearing mice; 90 min p.i.): 1.17 ± 0.03 %ID/g | %ID/g Salivary glands (KB tumor-bearing mice; 30 min p.i.): 8.01 ± 1.16 %ID/g | %ID/g Salivary glands (KB tumor-bearing mice; [3]): 0.20 ± 0.18 %ID/g | %ID/g Salivary glands (KB tumor-bearing mice; 60 min p.i.): 9.28 ± 1.68 %ID/g | %ID/g Salivary glands (KB tumor-bearing mice; 90 min p.i.): 7.03 ± 1.98 %ID/g | %ID/g Spleen (KB tumor-bearing mice; 30 min p.i.): 0.53 ± 0.14 %ID/g | %ID/g Spleen (KB tumor-bearing mice; [3]): 0.06 ± 0.03 %ID/g | %ID/g Spleen (KB tumor-bearing mice; 60 min p.i.): 0.49 ± 0.04 %ID/g | %ID/g Spleen (KB tumor-bearing mice; 90 min p.i.): 0.43 ± 0.08 %ID/g | %ID/g Stomach (empty) (KB tumor-bearing mice; 30 min p.i.): 2.18 ± 0.76 %ID/g | %ID/g Stomach (empty) (KB tumor-bearing mice; [3]): 0.12 ± 0.11 %ID/g | %ID/g Stomach (empty) (KB tumor-bearing mice; 60 min p.i.): 1.39 ± 0.13 %ID/g | %ID/g Stomach (empty) (KB tumor-bearing mice; 90 min p.i.): 0.96 ± 0.37 %ID/g | capacity factor k’ [1]: 1.12
